Results: US10322111B2, “Chemokine receptor binding heterocyclic compounds with enhanced efficacy” (Genzyme Corporation, priority 2001, dated 2019)
Like-named read-outs stand apart in the source and are kept apart here.

Test system: CFU-GM, BFU-E and CFU-GEMM progenitor cells
Conditions: for Cycling Status of Progenitors, CFU-GM, AGAR Culture / Cycling Status of Progenitors, BFU-E / Cycling Status of Progenitors, CFU-GEMM / Cycling Status of Progenitors, CFU-GM: 80 μg/kg s.c.

## c1cc(CN2CCCNCCNCCCNCC2)ccc1CN1CCCNCCNCCCNCC1 [AMD3100, 1,1′-[1,4-phenylene-bis(methylene)]-bis-1,4,8,11-tetraazacyclotetradecane]
P2, T = 1 h after injection
  Cycling Status of Progenitors, CFU-GM, AGAR Culture: 0%
P2, T = 3 h after injection
  Cycling Status of Progenitors, BFU-E: 0%
  Cycling Status of Progenitors, CFU-GEMM: 0%
  Cycling Status of Progenitors, CFU-GM: 2%
  Cycling Status of Progenitors, CFU-GM, AGAR Culture: 1%
P2, T = 6 h after injection
  Cycling Status of Progenitors, BFU-E: 0%
  Cycling Status of Progenitors, CFU-GEMM: 0%
  Cycling Status of Progenitors, CFU-GM: 0%
  Cycling Status of Progenitors, CFU-GM, AGAR Culture: 3%
P2, T = 9 h after injection
  Cycling Status of Progenitors, BFU-E: 0%
  Cycling Status of Progenitors, CFU-GEMM: 4%
  Cycling Status of Progenitors, CFU-GM: 0%
  Cycling Status of Progenitors, CFU-GM, AGAR Culture: 0%
P2, T = 24 h after injection
  Cycling Status of Progenitors, BFU-E: 2%
  Cycling Status of Progenitors, CFU-GEMM: 0%
  Cycling Status of Progenitors, CFU-GM: 3%
  Cycling Status of Progenitors, CFU-GM, AGAR Culture: 0%
P3, T = 1 h after injection
  Cycling Status of Progenitors, BFU-E: 0%
  Cycling Status of Progenitors, CFU-GEMM: 0%
  Cycling Status of Progenitors, CFU-GM: 0%
  Cycling Status of Progenitors, CFU-GM, AGAR Culture: 0%
P3, T = 3 h after injection
  Cycling Status of Progenitors, BFU-E: 0%
  Cycling Status of Progenitors, CFU-GEMM: 0%
  Cycling Status of Progenitors, CFU-GM: 1%
  Cycling Status of Progenitors, CFU-GM, AGAR Culture: 0%
P3, T = 6 h after injection
  Cycling Status of Progenitors, BFU-E: 0%
  Cycling Status of Progenitors, CFU-GEMM: 0%
  Cycling Status of Progenitors, CFU-GM: 0%
  Cycling Status of Progenitors, CFU-GM, AGAR Culture: 3%
P3, T = 9 h after injection
  Cycling Status of Progenitors, BFU-E: 0%
  Cycling Status of Progenitors, CFU-GEMM: 0%
  Cycling Status of Progenitors, CFU-GM: 0%
  Cycling Status of Progenitors, CFU-GM, AGAR Culture: 0%
P3, T = 24 h after injection
  Cycling Status of Progenitors, BFU-E: 0%
  Cycling Status of Progenitors, CFU-GEMM: 0%
  Cycling Status of Progenitors, CFU-GM: 0%
  Cycling Status of Progenitors, CFU-GM, AGAR Culture: 0%
P4, T = 1 h after injection
  Cycling Status of Progenitors, BFU-E: 0%
  Cycling Status of Progenitors, CFU-GEMM: 0%
  Cycling Status of Progenitors, CFU-GM: 0%
  Cycling Status of Progenitors, CFU-GM, AGAR Culture: 0%
P4, T = 3 h after injection
  Cycling Status of Progenitors, BFU-E: 9%
  Cycling Status of Progenitors, CFU-GEMM: 0%
  Cycling Status of Progenitors, CFU-GM: 5%
  Cycling Status of Progenitors, CFU-GM, AGAR Culture: 0%
P4, T = 6 h after injection
  Cycling Status of Progenitors, BFU-E: 0%
  Cycling Status of Progenitors, CFU-GEMM: 8%
  Cycling Status of Progenitors, CFU-GM: 0%
  Cycling Status of Progenitors, CFU-GM, AGAR Culture: 0%
P4, T = 9 h after injection
  Cycling Status of Progenitors, BFU-E: 0%
  Cycling Status of Progenitors, CFU-GEMM: 0%
  Cycling Status of Progenitors, CFU-GM: 0%
  Cycling Status of Progenitors, CFU-GM, AGAR Culture: 0%
P4, T = 24 h after injection
  Cycling Status of Progenitors, BFU-E: 3%
  Cycling Status of Progenitors, CFU-GEMM: 0%
  Cycling Status of Progenitors, CFU-GM: 5%
  Cycling Status of Progenitors, CFU-GM, AGAR Culture: 0%
P5, T = 1 h after injection
  Cycling Status of Progenitors, BFU-E: 0%
  Cycling Status of Progenitors, CFU-GEMM: 0%
  Cycling Status of Progenitors, CFU-GM: 0%
  Cycling Status of Progenitors, CFU-GM, AGAR Culture: 3%
P5, T = 3 h after injection
  Cycling Status of Progenitors, BFU-E: 3%
  Cycling Status of Progenitors, CFU-GEMM: 0%
  Cycling Status of Progenitors, CFU-GM: 5%
  Cycling Status of Progenitors, CFU-GM, AGAR Culture: 0%
P5, T = 6 h after injection
  Cycling Status of Progenitors, BFU-E: 1%
  Cycling Status of Progenitors, CFU-GEMM: 0%
  Cycling Status of Progenitors, CFU-GM: 0%
  Cycling Status of Progenitors, CFU-GM, AGAR Culture: 1%
P5, T = 9 h after injection
  Cycling Status of Progenitors, BFU-E: 0%
  Cycling Status of Progenitors, CFU-GEMM: 0%
  Cycling Status of Progenitors, CFU-GM: 0%
  Cycling Status of Progenitors, CFU-GM, AGAR Culture: 0%
P5, T = 24 h after injection
  Cycling Status of Progenitors, BFU-E: 0%
  Cycling Status of Progenitors, CFU-GEMM: 0%
  Cycling Status of Progenitors, CFU-GM: 0%
  Cycling Status of Progenitors, CFU-GM, AGAR Culture: 0%
Human donors, prior to and 1, 3, 6, 9 and 24 hours after injection
  cycling state of progenitors: slow or non-cycling state
